Reference: patent US10344266B2, “Cell mass capable of serving as a primitive organ-like structure comprised of a plurality of cell types of somatic origin” (priority 2006, dated 2019)

Key:
Type in all cases: cell-based, human
[1] = system: SHH (Sonic Hedge Hog); test: RT-PCR analysis (1) of cell mass, SHH; settings: in the presence of BIO (same in its absence), FIG. 7
Method: (§1) Hair papilla cells were prepared to P3 or more (with P1 indicating one round of subculturing) in the presence or absence of BIO loading, while keratinocytes were prepared up to and including P3.
(§2) Each of the cells was diluted with each medium following trypsin treatment so as to obtain 1×10^5 cells.
(§3) In the case of adding BIO (Calbiochem), the BIO was dissolved to 10 mM with dimethylsulfoxide (DMSO) and added to a concentration of 0.1 to 5 μM.
(§4) 25 to 35 μl of each culture medium was dispensed onto the inside of the upper lid of a square culture dish measuring 10 cm on a side and mixed to prepare dome-shaped droplets of a suitable size.
(§5) Three days later, the medium was replaced with the same medium as that used above.
(§6) After culturing for an additional four days, a portion of the medium was subjected to RT-PCR analysis (1) as described below. All of the remaining media was replaced with medium under conditions of the absence of BIO.
(§7) RNA was extracted from each sample using Trizol (Invitrogen). An equivalent of 200 ng of each RNA was reverse transcribed to cDNA with a reaction system consisting of 50 μl of RevTraACE (Toyobo). 1 μl of the resulting samples was applied to a PCR reaction in a 50 μl system using the primers listed below. […]

[2] = system: STAT-3; test: RT-PCR analysis (1) of cell mass, STAT-3; settings: presence of BIO compared with absence, FIG. 7
Method: as §1, §2, §3, §4, §5, §6, §7

[3] = system: Versican gene; test: RT-PCR analysis (1) of cell mass, Versican; settings: in the presence of BIO, ascribed to relative decrease of hair papilla cells, FIG. 7
Method: as §1, §2, §3, §4, §5, §6, §7

[4] = system: Lef-1; test: RT-PCR analysis (1) of cell mass, Lef-1; settings: in the presence of BIO (also detected in its absence), FIG. 7
Method: as §1, §2, §3, §4, §5, §6, §7

[5] = system: Wnt3A; test: Wnt3A RT-PCR, RT-PCR analysis (2) of cell mass; settings: FIG. 8
Method: Hair papilla cells were prepared to P3 (with P1 indicating one round of subculturing) in the presence of BIO loading, while keratinocytes were prepared up to and including P3.
(§8) Each of the cells was diluted with each medium following trypsin treatment so as to obtain 3×10^3 cells.
(§9) BIO (Calbiochem) was dissolved to 10 mM with dimethylsulfoxide (DMSO) and added to a concentration of 0.1 to 5 μM.
as §4
Three days later, the medium was replaced with the same medium as that used above. The samples were collected on the 7th day and submitted for RT-PCR analysis (2) as described below (“0 day” in FIG. 8). The medium used for the same remaining cells was replaced with medium under conditions of the absence of BIO to induce differentiation, after which the samples collected on the 3rd day were submitted for RT-PCR analysis (2) as described below (“3 days” in FIG. 8).
RNA was extracted from the samples using Trizol (Invitrogen). […]
10 μl of the reaction solution was electrophoresed at 100 V in 2% agarose gel (Cosmobio)/TAE buffer. Target bands were detected after visualizing with ethidium bromide.

[6] = system: cell mass of hair papilla cells and epidermal keratinocytes; test: Immunohistofluorescent staining of hanging-drop cell mass (hair papilla cells and keratinocytes)
Method: 30% Advanced DMEM (Invitrogen), 2 mM L-glutamine, a mixture of penicillin and streptomycin (Invitrogen, 100-fold dilution) and 3.5 μl/50 ml of β-mercaptoethanol were mixed with Humedia KG-2 (Kurabo) at a ratio of 1:1.
as §3, §1, §2, §4
(§10) Three days later, the medium was replaced with the same medium as that used above. […]
In the color version of this diagram, green coloring by vimentin antibody and red coloring by CD49f antibody can be distinguished, and each were able to be determined to be hair papilla cells and keratinocytes, respectively. […] After the cell masses formed following the addition of BIO, red-staining keratinocytes were determined to be growing in a regular manner in the form of branches within cell masses cultured in the absence of BIO. […]

[7] = system: cell masses prepared with hair papilla cells and outer root sheath cells; test: Immunohistofluorescent staining of cell mass prepared with hair papilla cells and outer root sheath cells
Method: Each of the cell masses obtained with the hanging drop method were fixed for 5 minutes with 0.1% paraformaldehyde and submitted for staining. In addition, a portion of the cell masses were embedded in OCT solution without fixing and prepared into frozen sections with a cryostat followed by immunohistostaining.
Blocking was carried out for 6 hours with PBS(−) containing 13% bovine serum albumin (BSA).
Each of the primary antibodies indicated in the following table were diluted by 1/200 with the aforementioned PBS(−) containing 13% bovine serum albumin (BSA), added to each sample and allowed to react for 4 hours at 4° C.
The cells were washed three times with PBS(−) containing 0.02% Tween 20.
Fluorescent secondary antibody (see Excel file) diluted by 1/200 with the aforementioned PBS(−) containing 13% bovine serum albumin (BSA) was added to each sample. In addition, the nuclei of the cells were stained blue with DAPI (4′-6-diamidino-2-phenylindole).
Antibody to cytokeratin 14 (K14) expressed in epidermal keratinocytes and outer root sheath cells is used for the purpose of confirming that these cells have not differentiated to hair roots (red). Since AE13 monoclonal antibody, which specifically reacts to hair keratin (Lynch et al., J. Cell Biol., 103, 2593, 1986), recognizes 44K/46K acidic hair keratin dimer, it is used to mark differentiation into hair roots (green). […]

[8] = system: TWIST-1; test: RT-PCR analysis (1) of cell mass, TWIST-1; settings: in the presence of BIO, ascribed to relative decrease of hair papilla cells, FIG. 7
Method: as §1, §2, §3, §4, §5, §6, §7

[9] = system: Wnt10B; test: Wnt10B RT-PCR, RT-PCR analysis (3), quantitative PCR of cell mass; settings: FIG. 9
Method: Hair papilla cells were prepared to P3 (with P1 indicating one round of subculturing) in the absence of BIO loading, while outer root sheath cells were prepared up to and including P3.
as §8, §9, §4, §10
RNA was extracted from the samples using Trizol (Invitrogen). […] 4 μl of the resulting samples were applied to a quantitative PCR system (LightCycler System, Roche) in a 20 μl system using the primers listed below. […]
All data was expressed as the relative expressed amount based on the expressed amount after 3 days in the case of not loading the cell mass with BIO. […] Accordingly, in this experimental system, differentiation of follicular epithelial cells (outer root sheath cells), and what is more, autonomous organogenesis were clearly determined to be induced by culturing in the presence of BIO followed by culturing after removing BIO.

SMILES: O=C1Nc2cc(Br)ccc2/C1=C1/Nc2ccccc2/C1=N\O [BIO, (2′Z,3′E)-6-bromoindirubin-3′-oxime]
- expression of SHH gene [1]: not detected
- expression of STAT-3 gene [2]: detected prominently
- expression of Versican gene [3]: expression appearing to decrease
- expression of Lef-1 gene [4]: detected
- expression of Wnt3A ([5]; 3rd day after removal of BIO ("3 days")): expression of Wnt3A was observed
- expression of Wnt3A ([5]; cultured in the presence of BIO, 7th day ("0 day")): not being observed at all
- staining for the proliferation marker, K167, in the cell mass ([6]; cell mass formed by adding BIO 0.1 to 5 μM, central portion and branch-like end portion, FIG. 3): positive
- staining by AE13 antibody (hair keratin) ([6]; hair papilla cells and epidermal keratinocytes, stimulated with BIO, no staining without BIO, FIG. 5): staining is observed in some cell masses
- immunostaining by Ber-EP4 antibody (hair buds) ([7]; hair papilla cells and outer root sheath cells stimulated with BIO, FIG. 6): clearly observed
- staining by AE13 antibody (hair keratin) ([7]; hair papilla cells and outer root sheath cells, BIO stimulation versus absence of BIO, FIG. 5): considerably enhanced
- expression of TWIST-1 gene [8]: expression appearing to decrease
- expression of Wnt10B, relative expressed amount ([9]; after removing BIO (day 10 and day 14)): increased over time
- expression of Wnt10B, relative expressed amount ([9]; cultured in the presence of BIO (day 7), versus control cultured in the absence of BIO): about the same level as that of a control
